Results: patent publication US20030143228A1, “Human telomerase reverse transcriptase as a class-II restricted tumor-associated antigen” (Baylor College of Medicine, priority 2001, published 2003)
Ends that are not written are not given here. code X = not defined here

System: HLA-DR4 transgenic mice
Experiment: hTRT766 immunization of HLA-DR4 transgenic mice, IFN-γ ELISPOT of splenocytes
Type: in vivo
Experimental: IFN-γ ELISPOT assay was used to analyze peptide-specific T cell responses by determining the frequency of Th precursors specific for the peptide. Mice were sacrificed […] after the last immunization and splenocytes were obtained for assessing IFN-γ production.
Briefly, 96-well MultiScreen-IP plates (Millipore Corporation, Bedford, Mass.) were coated with 100 ul/well capture mAb against mouse IFN-γ (AN-18, Mabtech Inc, Cincinnati, Ohio) at a concentration of 10 μg/ml and incubated overnight at 4° C. The plates were washed 4 times with PBS, then blocked with RPMI 1640 plus 10% FBS for 2 hours at 37° C. After washing, freshly isolated splenocytes were plated at 2×10^5cells/well in RPMI 1640 with 10% FBS, in the presence or absence of peptide hTRT766 (20 μg/ml), recombinant hTRT proteins (20 μg/ml) or hTRT-positive NA-6-Mel (ATCC) tumor lysates (50 ul/well). Tumor cell lysates were prepared by three freeze-thaw cycles of 5×10^7 tumor cells resuspended in 5 ml of RPMI 1640 with 10% FBS. Then the cells were centrifuged at 15,000 g for 30 minutes at 4° C. Supernatant was recovered, aliquoted and stored at −80° C. for later use, as described previously [Schroers, 2002 #116]. After 20 hours of cell culture in the incubator, the cells were removed by washing 3 times with PBS and 4 times with PBS/Tween20 (0.05%). Biotinylated anti-mouse IFN-γ antibody (R4-6A2, Mabtech Inc, Cincinnati, Ohio), diluted to 1 μg/ml in PBS/Tween20 containing 0.5% bovine serum albumin, was added and incubated for 2 hours at 37° C. The plates were then washed 6 times with PBS/Tween20 (0.05%) and subsequently avidin-peroxidase-complex (Vector Laboratories, Burlingame, Calif.) was added and incubated for 1 hour at room temperature, and removed by washing 3 times with PBS and PBS/Tween20 (0.05%). The color of the plates was developed by adding HRP substrate 3-amino-9-ethylcarbozole (Sigma, St. Louis, Mo.). The plates were then washed with tap water, and air dried in dark. The plates were evaluated using an automated ELISPOT reader (Zellnet Consulting Inc, New York, N.Y.).
To further assess the therapeutic potential of hTRT766, HLA-DR4 transgenic mice (Congia, 1998; Sonderstrup, 1998; Sonderstrup, 1999) were used to determine whether immunization with the peptide induces a CD4+ Th response specific not only for the peptide, but also for the hTRT protein.
Briefly, human HLA DR4 transgenic mice (HLA-DRB1*0401), which are murine class II-deficient and transduced with human CD4 molecule, were generated. [Congia, 1998; Sonderstrup, 1998; Sonderstrup, 1999). The transgenic mice were successfully used to identify human class-II-restricted epitopes and to study immune responses (Congia, 1998; Sonderstrup, 1998; Sonderstrup, 1999; Geluk, 1998). HLA DR4 expression on the transgenic mice was analyzed by flow cytometry. Male DR4 transgenic mice 6- to 10-week-old were used for experiment. The transgenic mice were immunized twice at one week interval with 100 μg of hTRT766 peptide emulsified in complete Freunds adjuvant (CFA) (final volume, 100 μl) and administered subcutaneously (s.c.) into the rear back. Control group mice were injected with phosphate-buffered saline (PBS) emulsified in CFA.
The spleen cells were isolated and stained with FITC-conjugated mouse anti-human HLA-DR, PE-conjugated mouse anti-human CD4 or FITC-conjugated rat anti-mouse CD4 (BD PharMingen, San Diego, Calif.). Flow cytometric analysis determined that these transgenic mice were human HLA-DR, CD4 positive and mouse CD4 negative. Ten days after the last immunization, the transgenic mice were sacrificed and the responses of their splenocytes to peptides, recombinant hTRT protein and hTRT-positive tumor cell were examined by using IFN-γ ELISPOT assays. The splenocytes of hTRT766-immunized mice responded strongly to the hTRT766 stimulation, producing IFN-γ at a frequency of 72 spots per million of splenocytes (medium control, 10/106). […]

Sequence: XLTDLQPYMRQFVAHL ({code X}-LTDLQPYMRQFVAHL; not fully specified; reading uncertain) [hTRT766]
- response of splenocytes of immunized mice to irrelevant peptide hTRT854 (100 μg peptide in CFA s.c. twice, IFN-γ ELISPOT): did not respond
- IFN-γ ELISPOT frequency of splenocytes of immunized mice (100 μg peptide in CFA s.c. twice, restimulated with hTRT766 peptide 20 μg/ml): 72 spots per million of splenocytes
- IFN-γ ELISPOT frequency of splenocytes of immunized mice (restimulated with recombinant hTRT protein 20 μg/ml): 41 spots per million cells
- IFN-γ ELISPOT frequency of splenocytes of immunized mice (stimulated with hTRT-negative GM847 tumor lysates, background frequency): 10/106
- IFN-γ ELISPOT frequency of splenocytes of immunized mice (stimulated with hTRT-positive NA-6-Mel cell lysates): 38 spots per million cells
- IFN-γ ELISPOT frequency of splenocytes of immunized mice (stimulated with irrelevant CEA-Fc proteins, background frequency): 10/106
